# According to US20070059272A1 (priority 2005, published 2007):
# Experiments:
# [1] = test system: PA-I promoter activity in reporter strain PA27853/PLL-EGFP
# [2] = test system: pyocyanin (PCN) production in P. aeruginosa PAO1; format: cell-based, Pseudomonas aeruginosa
# [3] = test system: membrane fractions of P. aeruginosa (PAO1); assay: ELISA binding to membrane fractions and solubilized membrane proteins of P. aeruginosa PAO1; parameters: species or system Pseudomonas aeruginosa; conditions: human cytokines, ELISA
molecule,measurement,setting,value
Nc1ncnc2c1ncn2[C@@H]1O[C@H](COP(=O)(O)OP(=O)(O)O)[C@@H](O)[C@H]1O [ADP],"PA-I expression, nucleosides and nucleotides",[1],no evident inducing effects
Nc1ncnc2c1ncn2[C@@H]1O[C@H](COP(=O)(O)O)[C@@H](O)[C@H]1O [AMP],"PA-I expression, nucleosides and nucleotides",[1],no evident inducing effects
Nc1ncnc2c1ncn2[C@@H]1O[C@H](COP(=O)(O)OP(=O)(O)OP(=O)(O)O)[C@@H](O)[C@H]1O [ATP],"PA-I expression, nucleosides and nucleotides",[1],no evident inducing effects
C[C@@H](O)C(=O)O [D-lactate],"PA-I promoter activity, candidate compounds in HDMEM",[1],no effect
C[C@H](O)C(=O)O [L-lactate],"PA-I promoter activity, candidate compounds in HDMEM",[1],no effect
"COC(=O)c1ccccc1N [MA, methyl anthranilate]","effect on ability of U-50,488 to enhance PCN production",[2],"inhibited the ability of U-50,488 to enhance PCN production"
Nc1ncnc2c1ncn2[C@@H]1O[C@H](CO)[C@@H](O)[C@H]1O [adenosine],"PA-I expression, nucleosides and nucleotides",[1],both dose- and time-dependent
same,"PA-I promoter activity, candidate compounds in HDMEM",[1],enhanced fluorescence
OC[C@H]1O[C@@H](n2cnc3c(O)ncnc32)[C@H](O)[C@@H]1O [inosine],"inosine concentration inducing PA-I expression, fold less than adenosine of equivalent effect",[1],10 fold
same,onset of PA-I expression compared with adenosine,[1],earlier time point
same,size of effect on PA-I expression compared with adenosine,[1],greater
"Oc1ccc2c3c1O[C@H]1c4[nH]c5c(c4C[C@@]4(O)[C@@H](C2)N(CC2CC2)CC[C@]314)C[C@@]1(O)[C@H]2Cc3ccc(O)c4c3[C@@]1(CCN2CC1CC1)[C@H]5O4 [norbinaltorphimine, nor-binaltorphimine]",dose that completely inhibits enhanced PCN production,[2],200 µM
same,"effect on U-50,488-enhanced PCN production",[2],attenuates enhanced PCN production
EGF: human cytokine tested for membrane binding,binding to P. aeruginosa cell membranes,[3],No binding
IL-4: human cytokine,binding to P. aeruginosa cell membranes,[3],No binding
IL-10: human cytokine,binding to P. aeruginosa cell membranes,[3],No binding
TGF-β,binding to P. aeruginosa cell membranes,[3],No binding
dynorphin,PCN production (OD520 nm),[2],enhanced PCN production in a dose-dependent manner
"adenosine deaminase: enzyme added to deplete the media of adenosine (protein, UniProt P00813 2-363, looked up) Adenosine deaminase: AQTPAFDKPKVELHVHLDGSIKPETILYYGRRRGIALPANTAEGLLNVIGMDKPLTLPDFLAKFDYYMPAIAGCREAIKRIAYEFVEMKAKEGVVYVEVRYSPHLLANSKVEPIPWNQAEGDLTPDEVVALVGQGLQEGERDFGVKARSILCCMRHQPNWSPKVVELCKKYQQQTVVAIDLAGDETIPGSSLLPGHVQAYQEAVKSGIHRTVHAGEVGSAEVVKEAVDILKTERLGHGYHTLEDQALYNRLRQENMHFEICPWSSYLTGAWKPDTEHAVIRLKNDQANYSLNTDDPLIFKSTLDTDYQMTKRDMGFTEEEFKRLNINAAKSSFLPEDEKRELLDLLYKAYGMPPSASAGQNL",PA-I expression after depleting adenosine from media of HIF-1-a-activated Caco-2 cells,[1]; Caco-2,even greater increase in PA-I expression
